The values that follow come from US20120172451A1, “CLEANING LIQUID” (priority 2010, published 2012).

A short description of the series: pH measurement. The format is physicochemical. From the text:
All measurements of pH and temperature mentioned in this specification were taken on a Hanna Instruments Ltd. device, with the model no. HI98127 (a waterproof pH and ° C./° F. probe). The measurements of pH and temperature could be taken on other generally available pH and temperature probes.

Structures are written as SMILES.

For the compound `O=C(O)CC(O)(CC(=O)O)C(=O)O` [citric acid], the pH (50 g/l at 20° C.) is on record as 1.8.

`O=P(O)(O)O` [phosphoric acid]: under “1 mol/L at 20° C.”, the pH entry is listed as “around 1.08”.
